Assay results taken from article PMC3774728, “Identification of the Plant Compound Geraniin as a Novel Hsp90 Inhibitor” (PLoS ONE, 2013).

What was measured:
Hsp90α ATPase activity = molecular target: T1, Hsp90α ATPase activity (Homo sapiens, UniProt P07900); assay: ATP hydrolysis inhibition (ADP Hunter Plus assay); type: biochemical; conditions: 40 nM Hsp90α, 100 µM ATP, 60 min, 40°C
T1 construct: purchased Assay Designs (Ann Arbor, MI, USA)
Description: The assay was performed using the Discover RX ADP HunterTM Plus Assay kit, following the manufacturer’s instructions. ATPase reactions were carried out for 60 min at 40°C temperature in 100 mM Tris pH 7.4, 100 µM ATP and 40 nM Hsp90α in the presence of different concentrations of geraniin or 17-AAG. ADP generation was measured using a Perkin Elmer LS 55 fluorimeter (540 nm excitation and 620 nm emission). Fluorescence intensity values measured for Hsp90α without any compound were set at 100% of enzyme activity. The background reaction rate was measured in a reaction lacking enzyme or substrate and subtracted from the experimental rates.
Figure 3 Inhibition of Hsp90α activity. ATPase activity of the chaperone was evaluated in the presence of different concentrations of geraniin, 17-AAG and HA (A). Data are reported as the residual ATPase activity (%) compared to that observed for an untreated sample. Data are the mean of three independent experiments performed in triplicate and were analyzed by t test (HA vs testing compounds): The error bar represents the standard deviation of nine measurements, while * indicates significance at P<0.01. Aggregation kinetics of citrate synthase (CS) at 43°C determined by light scattering (B). […]

HeLa cells = assay: Cell cycle and hypodiploidy by flow cytometry (PI), HeLa; type: cell-based, human; conditions: 24 h, geraniin 5 µM, 17-AAG 0.2 µM
Description: Cell DNA content was measured by propidium iodide (PI) incorporation into permeabilized cells, as described by Nicoletti et al.. Briefly, the cells were harvested after geraniin or 17-AAG treatments were washed with cold PBS and incubated with a PI solution (0.1% sodium citrate, 0.1% Triton X-100 and 50 µg mL^−1 of prodium iodide, Sigma-Aldrich, 10 µg/ml Rnase A) for 30 min at room temperature. Data from 10.000 events per sample were collected by a FACScalibur flow cytometer (Becton Dickinson, San José, CA) and cellular debris was excluded from analysis by raising the forward scatter threshold. The percentage of cells in the sub G0/G1 phase, apoptotic fraction, was quantified using CellQuest software (Becton Dickinson). The distribution of cells in G0/G1, S, G2/M phases was determined using ModFit LT cell cycle analysis software (Becton Dickinson). Results were expressed as a mean ± SD of three experiments performed in triplicate.
Figure 6 Effects of geraniin and 17-AAG on cell cycle progression. Percentage of cell cycle stages was analyzed by flow cytometry, (A) PI-stained viable Jurkat cells treated with DMSO, 0.7 µM geraniin or 10 µM 17-AAG for 24 h.

[1] = system: PHA-stimulated proliferating PBMC; assay: Hypodiploidy/necrosis by flow cytometry, PHA-stimulated PBMC; type: cell-based, human; conditions: untreated cells 1.5±0.8%
Description: Jurkat and HeLa (epithelial carcinoma) cells, obtained from Cell Bank in GMP-IST (Genova, Italy) were maintained in RPMI 1640 medium or Dulbecco’s modified Eagle medium (DMEM), respectively, supplemented with 10% (v/v) FBS, 2 mM L−glutamine and antibiotics (100 U mL^−1 penicillin, 100 µg mL^−1 streptomycin) purchased from Invitrogen (Carslbad, CA, USA), at 37°C in humidified atmosphere with 5% CO2. To ensure logarithmic growth, cells were subcultured every two days. As control cells, human peripheral blood mononuclear cells (PBMC) were isolated from buffy coats of healthy donors (kindly provided by the Blood Center of the Hospital of Battipaglia, Salerno, Italy) by using standard Ficoll−Hypaque gradients. Freshly isolated PBMC contained 92.8±3.1% live cells. Proliferation of PBMC was induced by phytohemagglutinin (PHA) (10 µg mL^−1). […]
Cell DNA content was measured by propidium iodide (PI) incorporation into permeabilized cells, as described by Nicoletti et al.. […] The percentage of cells in the sub G0/G1 phase, apoptotic fraction, was quantified using CellQuest software (Becton Dickinson). The distribution of cells in G0/G1, S, G2/M phases was determined using ModFit LT cell cycle analysis software (Becton Dickinson). Results were expressed as a mean ± SD of three experiments performed in triplicate.

[2] = system: Hsp70, Hsp90 and Hsp90 client proteins in HeLa cells; assay: Western blot of Hsp70 and Hsp90 client proteins, HeLa; type: cell-based, human; conditions: 24 h
Description: Treated cells were harvested and disrupted by freeze−thawing in RIPA buffer (50 mM Hepes, 10 mM EDTA, 150 mM NaCl, 1% NP-40, 0.5% sodium deoxycholate, 0.1% SDS, pH 7.4), supplemented with protease inhibitors cocktail (Sigma-Aldrich). Cell debris was removed by centrifugation at 4°C and the supernatant protein concentration was determined, according to the Bio-Rad Protein assay (Biorad Laboratories, CA, USA). Total proteins (30 µg) were separated by SDS-PAGE under denatured reducing conditions. Separated proteins were then transferred to nitrocellulose membranes and blocked for 3 h with a solution containing 3% BSA in 50 mM Tris, 200 mM NaCl, 0.1% Tween 20, before incubation at 4°C overnight with the different primary antibodies (diluted 1∶1000) against specific proteins. After washing, the membranes were incubated with an appropriate peroxidase-conjugate secondary antibodies at room temperature (1 h). Immunoreactive protein bands were detected by enhanced chemiluminescence reagent (ECL, Rockford, USA), according to the manufacturer’s instructions. Quantitative densitometry analyses were performed using a Gel Doc 2000 system (Biorad Laboratories, CA, USA).
Figure 7 Effect of geraniin on Hsp90 client protein levels. Equal amounts (30 µg) of whole-cell lysates were separated on SDS-PAGE and client proteins were visualized by western blot analysis using specific antibodies. Actin was used as loading control. Total cellular proteins were extracted 24 h after treatment with geraniin (2.5 µM, 5 µM and 10 µM) in Jurkat cells (A) or geraniin (1 µM, 0.7 µM and 0.5 µM) in HeLa cells (B), ctrl = control cells treated with DMSO). The blots shown are representative of three different experiments with similar results.

Q: For `O=C1O[C@H]2[C@@H]3OC(=O)c4cc(O)c(O)c(O)c4-c4c(cc(O)c(O)c4O)C(=O)OC[C@H]2O[C@@H](OC(=O)c2cc(O)c(O)c(O)c2)[C@@H]3OC(=O)c2cc(O)c(O)c3c2[C@@H]2C1=CC(=O)[C@](O)(O3)C2(O)O` [Compound 54, geraniin], which “Hsp90α ATPase activity inhibition” value (Hsp90α ATPase activity) is on record?
A: The value was “inhibit Hsp90α ATPase activity in a dose−dependent manner”.

Q: And the cell cycle arrest (HeLa cells)?
A: Its cell cycle arrest is “G2/M arrest”.

Q: What about the “percentage of cells with hypodiploid nuclei” value (HeLa cells) of the same compound?
A: The value was 16.2±0.7%.

Q: And the levels of hypodiploidy/necrosis [1]?
A: Its levels of hypodiploidy/necrosis is 2.6±1.3%.

Q: What about the Hsp70 expression increase ([2]; 10 µM geraniin) of the same compound?
A: The Hsp70 expression increase was 2.7±0.09 fold.

Q: What about the “level of Akt” value [2] of the same compound?
A: The value was “unaffected”.

Q: What about the “level of the client proteins c-Raf, pAkt and EGFR” value ([2]; IC50 and lower and higher concentrations) of the same compound?
A: The value was “dose-dependent decrease”.
